Source: US11149031B2, “Substituted N-(3-fluoropropyl)-pyrrolidine compounds, processes for their preparation and therapeutic uses thereof” (SANOFI, priority 2016, dated 2021)
Like-named read-outs stand apart in the source and are kept apart here.

What was measured:
[1] = molecular target: His6-ERα298-554 D538G mutant (ERα ligand-binding domain) (Homo sapiens (Human), UniProt P03372, D538G); assay: Test A: biochemical antagonist activity, LanthaScreen TR-FRET ERα coactivator assay, D538G mutant; conditions: read-out: Antagonism D538G IC50
Sequence of His6-ERα298-554 D538G mutant (ERα ligand-binding domain) (P03372 298-554 D538G): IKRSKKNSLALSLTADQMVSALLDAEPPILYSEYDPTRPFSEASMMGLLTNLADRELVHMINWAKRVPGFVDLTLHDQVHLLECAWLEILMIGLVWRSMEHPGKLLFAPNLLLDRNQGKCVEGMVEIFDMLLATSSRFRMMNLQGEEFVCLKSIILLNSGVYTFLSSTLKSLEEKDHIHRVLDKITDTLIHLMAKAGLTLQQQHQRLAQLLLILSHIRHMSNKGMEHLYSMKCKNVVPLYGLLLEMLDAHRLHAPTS
Method in brief: (§1)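 Compounds were added to receptor LBD (0.5 nM), terbium-labelled His6 antibody (0.5 nM), PGC1a coactivator peptide (250 nM) and estradiol at 3 nM or 10 nM. After incubating overnight at room temperature, the 520:495 nm ratio gave IC50 values by four-parameter logistic regression.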

[2] = molecular target: His6-ERα298-554 WT (ERα ligand-binding domain) (Homo sapiens (Human), UniProt P03372); assay: Test A: biochemical antagonist activity, LanthaScreen TR-FRET ERα coactivator assay, WT; conditions: read-out: Antagonism WT IC50
Sequence of His6-ERα298-554 WT (ERα ligand-binding domain) (P03372 298-554): as the sequence (P03372 298-554 D538G) above, with G241D counted along it
Method in brief: as §1

[3] = system: MCF7 cells expressing mutant estrogen receptor Tyr 537 Ser; assay: Test B: cell proliferation/viability assay (CellTiter-Glo) on MCF7 Tyr 537 Ser mutant; assay type: cell-based; conditions: Homo sapiens, MCF7, 168 h, MCF7 cells expressing ER Tyr 537 Ser mutant, 7 days of compound exposure, read-out: proliferation MCF7 Y537S IC50
Method in brief: (§2)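 Mutant lines are MCF7 transfected with ER mutants and selected for estradiol-independent growth. Cells in phenol red-free MEM with 5% charcoal-stripped FBS received 9-point 1:5 dilutions (3-0.000001 μM) for 7 days; CellTiter-Glo luminescence, % viability relative to untreated after background subtraction.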

ERα in MCF7 cells = ERα in MCF7 cells (Homo sapiens (Human), UniProt P03372); assay: Test C: estrogen receptor degradation activity, ERα in cell western assay in MCF7 cells; assay type: cell-based; conditions: for DC50: 4 hours post compound addition, ERα in cell western, read-out: Degradation IC50; for % Degradation at 3 μM: 4 hours, relative to fulvestrant
Sequence of ERα in MCF7 cells (P03372 whole entry): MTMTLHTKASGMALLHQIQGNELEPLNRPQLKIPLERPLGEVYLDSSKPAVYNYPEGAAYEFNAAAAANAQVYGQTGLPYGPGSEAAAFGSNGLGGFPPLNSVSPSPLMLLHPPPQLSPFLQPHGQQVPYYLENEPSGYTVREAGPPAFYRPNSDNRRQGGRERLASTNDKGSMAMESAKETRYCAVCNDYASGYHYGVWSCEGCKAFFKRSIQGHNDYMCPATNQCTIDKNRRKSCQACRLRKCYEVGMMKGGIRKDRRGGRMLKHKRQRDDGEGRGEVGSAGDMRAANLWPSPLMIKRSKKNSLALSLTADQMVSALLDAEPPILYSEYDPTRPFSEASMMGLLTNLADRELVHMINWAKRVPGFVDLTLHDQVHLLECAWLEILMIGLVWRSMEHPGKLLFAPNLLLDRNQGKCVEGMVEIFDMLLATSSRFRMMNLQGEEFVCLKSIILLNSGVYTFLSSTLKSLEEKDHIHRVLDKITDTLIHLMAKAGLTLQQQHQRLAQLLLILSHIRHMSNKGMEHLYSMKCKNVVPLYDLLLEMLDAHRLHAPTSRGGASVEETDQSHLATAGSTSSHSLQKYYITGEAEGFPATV
Method in brief: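 MCF7 cells in phenol-red-free medium with 5% charcoal-stripped FBS received compound (9-point 1:5, 3-0.000018 μM) for 4 h, then were fixed. ERα immunostained (Alexa 488) and normalised to DNA (Syto-64), read as integrated fluorescence on an Acumen scanner.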

[4] = system: MCF7 cells expressing mutant estrogen receptor Asp 538 Gly; assay: Test B: cell proliferation/viability assay (CellTiter-Glo) on MCF7 Asp 538 Gly mutant; assay type: cell-based; conditions: Homo sapiens, MCF7, 168 h, MCF7 cells expressing ER Asp 538 Gly mutant, 7 days of compound exposure, read-out: proliferation MCF7 D538G IC50
Method in brief: as §2

[5] = system: MCF7 cells (breast tumor cells) WT; assay: Test B: cell proliferation/viability assay (CellTiter-Glo) on MCF7 WT; assay type: cell-based; conditions: Homo sapiens, MCF7, 168 h, 7 days of compound exposure
Method in brief: as §2

[6] = molecular target: His6-ERα298-554 Y537S mutant (ERα ligand-binding domain) (Homo sapiens (Human), UniProt P03372, Y537S); assay: Test A: biochemical antagonist activity, LanthaScreen TR-FRET ERα coactivator assay, Y537S mutant; conditions: read-out: Antagonism Y537S IC50
Sequence of His6-ERα298-554 Y537S mutant (ERα ligand-binding domain) (P03372 298-554 Y537S): as the sequence (P03372 298-554 D538G) above, with Y240S, G241D counted along it
Method in brief: as §1

[7] = asterisk (*): protocol using 10 nM estradiol

O=C1Cc2cc(C3=C(c4ccc(O[C@H]5CCN(CCCF)C5)cc4)c4ccc(O)cc4SC3)ccc2N1 [Example 51, 5-[4-[4-[(3S)-1-(3-fluoropropyl)pyrrolidin-3-yl]oxyphenyl]-7-hydroxy-2H-thiochromen-3-yl]indolin-2-one]
IC50 [1, 7]: > 4000 nM
IC50 [2, 7]: 350 nM
IC50 [3]: 230 nM
DC50 (ERα in MCF7 cells): 12 nM
% Degradation at 3 μM (ERα in MCF7 cells): 85%
IC50 [4]: 148 nM
IC50 [5]: 91 nM
IC50 [6, 7]: 3600 nM

CC(C)(C)OC(=O)Nc1ccc(C2=C(c3ccc(O[C@H]4CCN(CCCF)C4)cc3)c3ccc(O)cc3SC2)c(F)n1 [Example 65, tert-butyl N-[6-fluoro-5-[4-[4-[(3S)-1-(3-fluoropropyl)pyrrolidin-3-yl]oxyphenyl]-7-hydroxy-2H-thiochromen-3-yl]-2-pyridyl]carbamate]
IC50 [1, 7]: > 4000 nM
IC50 [2, 7]: 1220 nM
IC50 [3]: 572 nM
DC50 (ERα in MCF7 cells): 38 nM
% Degradation at 3 μM (ERα in MCF7 cells): 71%
IC50 [4]: 21 nM
IC50 [5]: 21 nM
IC50 [6, 7]: > 4000 nM

Oc1ccc2c(c1)SCCC(c1ccc(OC(F)F)c(F)c1)=C2c1ccc(O[C@H]2CCN(CCCF)C2)cc1 [Example 191, 4-[4-(difluoromethoxy)-3-fluoro-phenyl]-5-[4-[(3S)-1-(3-fluoropropyl)pyrrolidin-3-yl]oxyphenyl]-2,3-dihydro-1-benzothiepin-8-ol]
IC50 ([1]; protocol with 3 nM estradiol): 51 nM
IC50 ([2]; protocol with 3 nM estradiol): 3 nM
IC50 [3]: 3 nM
DC50 (ERα in MCF7 cells): 0.2 nM
% Degradation at 3 μM (ERα in MCF7 cells): 95%
IC50 [4]: 0.4 nM
IC50 [5]: 0.3 nM
IC50 ([6]; protocol with 3 nM estradiol): 32 nM

CCOc1ccc(C2=C(c3ccc(O[C@H]4CCN(CCCF)C4)cc3)c3ccc(O)cc3SC2)c(Cl)c1 [Example 36, 3-(2-chloro-4-ethoxy-phenyl)-4-[4-[(3S)-1-(3-fluoropropyl)pyrrolidin-3-yl]oxyphenyl]-2H-thiochromen-7-ol]
IC50 [1, 7]: 257 nM
IC50 [2, 7]: 11 nM
IC50 [3]: 3 nM
DC50 (ERα in MCF7 cells): 0.2 nM
% Degradation at 3 μM (ERα in MCF7 cells): 83%
IC50 [4]: 0.5 nM
IC50 [5]: 0.5 nM
IC50 [6, 7]: 154 nM

CCOc1ccc(C2=C(c3ccc(O[C@H]4CCN(CCCF)C4)cc3)c3ccc(O)cc3SCC2)c(F)c1F [Example 217, 4-(4-ethoxy-2,3-difluoro-phenyl)-5-[4-[(3S)-1-(3-fluoropropyl)pyrrolidin-3-yl]oxyphenyl]-2,3-dihydro-1-benzothiepin-8-ol]
IC50 [1, 7]: 61 nM
IC50 [2, 7]: 4 nM
IC50 [3]: 5 nM
DC50 (ERα in MCF7 cells): 0.2 nM
% Degradation at 3 μM (ERα in MCF7 cells): 87%
IC50 [4]: 0.6 nM
IC50 [5]: 0.1 nM
IC50 [6, 7]: 39 nM

[O-][S+]1CCC(c2ccc(OC(F)(F)F)cc2)=C(c2ccc(O[C@H]3CCN(CCCF)C3)cc2)c2ccc(O)cc21 (stereo partly drawn) [Example 225, 5-[4-[(3S)-1-(3-fluoropropyl)pyrrolidin-3-yl]oxyphenyl]-1-oxo-4-[4-(trifluoromethoxy)phenyl]-2,3-dihydro-benzothiepin-8-ol]
IC50 [1, 7]: > 4000 nM
IC50 [2, 7]: 750 nM
IC50 [3]: 249 nM
DC50 (ERα in MCF7 cells): 6 nM
% Degradation at 3 μM (ERα in MCF7 cells): 82%
IC50 [4]: 36 nM
IC50 [5]: 18 nM
IC50 [6, 7]: > 4000 nM

CCOc1ccc(C2=C(c3ccc(O[C@H]4CCN(CCCF)C4)nc3)c3ccc(O)cc3CCC2)c(F)n1 [Example 240, 6-(6-ethoxy-2-fluoro-3-pyridyl)-5-[6-[(3S)-1-(3-fluoropropyl)pyrrolidin-3-yl]oxy-3-pyridyl]-8,9-dihydro-7H-benzo[7]annulen-2-ol]
IC50 [1, 7]: 6 nM
IC50 [2, 7]: 6 nM
IC50 [3]: 3 nM
DC50 (ERα in MCF7 cells): 0.3 nM
% Degradation at 3 μM (ERα in MCF7 cells): 89%
IC50 [4]: 0.5 nM
IC50 [5]: 0.3 nM
IC50 [6, 7]: 4 nM

Oc1ccc2c(c1)CCCC(c1ccc(OC(F)(F)F)cc1)=C2c1ccc(O[C@H]2CCN(CCCF)C2)nc1 [Example 253, 5-[6-[(3S)-1-(3-fluoropropyl)pyrrolidin-3-yl]oxy-3-pyridyl]-6-[4-(trifluoromethoxy)phenyl]-8,9-dihydro-7H-benzo[7]annulen-2-ol]
IC50 [1, 7]: 155 nM
IC50 [2, 7]: 7 nM
IC50 [3]: 2 nM
DC50 (ERα in MCF7 cells): 0.2 nM
% Degradation at 3 μM (ERα in MCF7 cells): 85%
IC50 [4]: 0.1 nM
IC50 [5]: 0.1 nM
IC50 [6, 7]: 95 nM

Oc1ccc2c(c1)SCCC(c1cnc3c(c1)CCN3)=C2c1ccc(O[C@H]2CCN(CCCF)C2)cc1 [Example 183, 4-(2,3-dihydro-1H-pyrrolo[2,3-b]pyridin-5-yl)-5-[4-[(3S)-1-(3-fluoropropyl)pyrrolidin-3-yl]oxyphenyl]-2,3-dihydro-1-benzothiepin-8-ol]
IC50 ([1]; protocol with 3 nM estradiol): 122 nM
IC50 ([2]; protocol with 3 nM estradiol): 7 nM
IC50 [3]: 73 nM
DC50 (ERα in MCF7 cells): 1 nM
% Degradation at 3 μM (ERα in MCF7 cells): 83%
IC50 [4]: 5 nM
IC50 [5]: 1 nM
IC50 ([6]; protocol with 3 nM estradiol): 70 nM

Oc1ccc2c(c1)C(c1ccc(O[C@H]3CCN(CCCF)C3)cc1)=C(c1ccc(OC(F)(F)F)cc1Cl)CC2 [Example 7, 7-[2-chloro-4-(trifluoromethoxy)phenyl]-8-[4-[(3S)-1-(3-fluoropropyl)pyrrolidin-3-yl]oxyphenyl]-5,6-dihydronaphthalen-2-ol]
IC50 [1, 7]: > 4000 nM
IC50 [2, 7]: 1470 nM
IC50 [3]: > 999 nM
DC50 (ERα in MCF7 cells): 22 nM
% Degradation at 3 μM (ERα in MCF7 cells): 82%
IC50 [4]: 18 nM
IC50 [5]: 13 nM
IC50 [6, 7]: > 4000 nM

O=C(O)c1ccc2c(c1)CCCC(c1ccc(OC(F)F)c(F)c1)=C2c1ccc(O[C@H]2CCN(CCCF)C2)nc1 [Example 248, 6-[4-(difluoromethoxy)-3-fluoro-phenyl]-5-[6-[(3S)-1-(3-fluoropropyl)pyrrolidin-3-yl]oxy-3-pyridyl]-8,9-dihydro-7H-benzo[7]annulene-2-carboxylicacid]
IC50 [1, 7]: 3440 nM
IC50 [2, 7]: 141 nM
IC50 [3]: 15 nM
DC50 (ERα in MCF7 cells): 0.7 nM
% Degradation at 3 μM (ERα in MCF7 cells): 95%
IC50 [4]: 1 nM
IC50 [5]: 0.7 nM
IC50 [6, 7]: 1920 nM

Cc1ccc(C2=C(c3ccc(O[C@H]4CCN(CCCF)C4)cc3)c3ccc(C(=O)O)cc3SCC2)c(F)c1 [Example 210, 4-(2-fluoro-4-methyl-phenyl)-5-[4-[(3S)-1-(3-fluoropropyl)pyrrolidin-3-yl]oxyphenyl]-2,3-dihydro-1-benzothiepine-8-carboxylic acid]
IC50 [1, 7]: 2220 nM
IC50 [2, 7]: 103 nM
IC50 [3]: 15 nM
DC50 (ERα in MCF7 cells): 2 nM
% Degradation at 3 μM (ERα in MCF7 cells): 89%
IC50 [4]: 1 nM
IC50 [5]: 0.8 nM
IC50 [6, 7]: 1330 nM

Oc1ccc2c(c1)CCCC(c1ccc(Cl)c(F)c1)=C2c1cnc(O[C@H]2CCN(CCCF)C2)cn1 [Example 243, 6-(4-chloro-3-fluoro-phenyl)-5-[5-[(3S)-1-(3-fluoropropyl)pyrrolidin-3-yl]oxypyrazin-2-yl]-8,9-dihydro-7H-benzo[7]annulen-2-ol]
IC50 [1, 7]: 386 nM
IC50 [2, 7]: 12 nM
IC50 [3]: 3 nM
DC50 (ERα in MCF7 cells): 0.3 nM
% Degradation at 3 μM (ERα in MCF7 cells): 91%
IC50 [4]: 0.5 nM
IC50 [5]: 0.2 nM
IC50 [6, 7]: 179 nM

Oc1ccc2c(c1)OCCC(c1ccc(OCCN3CCCC3)cc1)=C2c1ccc(O[C@H]2CCN(CCCF)C2)cc1 [Example 147, 5-[4-[(3S)-1-(3-fluoropropyl)pyrrolidin-3-yl]oxyphenyl]-4-[4-(2-pyrrolidin-1-ylethoxy)phenyl]-2,3-dihydro-1-benzoxepin-8-ol]
IC50 [1, 7]: > 4000 nM
IC50 [2, 7]: 390 nM
IC50 [3]: > 999 nM
DC50 (ERα in MCF7 cells): 49 nM
% Degradation at 3 μM (ERα in MCF7 cells): 77%
IC50 [4]: 90 nM
IC50 [5]: 52 nM
IC50 [6, 7]: 3810 nM

CCOc1ccc(C2=C(c3ccc(N[C@H]4CCN(CCCF)C4)cc3)c3ccc(O)cc3CCC2)c(F)n1 [Example 86, 6-(6-ethoxy-2-fluoro-3-pyridyl)-5-[4-[[(3S)-1-(3-fluoropropyl)pyrrolidin-3-yl]amino]phenyl]-8,9-dihydro-7H-benzo[7]annulen-2-ol]
IC50 [1, 7]: 7 nM
IC50 [2, 7]: 0.5 nM
IC50 [3]: 1 nM
DC50 (ERα in MCF7 cells): 0.5 nM
% Degradation at 3 μM (ERα in MCF7 cells): 95%
IC50 [4]: 0.2 nM
IC50 [5]: 0.2 nM
IC50 [6, 7]: 5 nM

CC(C)(C)c1ccc(C2=C(c3ccc(O[C@H]4CCN(CCCF)C4)cc3)c3ccc(O)cc3SCC2)cc1 [Example 216, 4-(4-tert-butylphenyl)-5-[4-[(3S)-1-(3-fluoropropyl)pyrrolidin-3-yl]oxyphenyl]-2,3-dihydro-1-benzothiepin-8-ol]
IC50 [1, 7]: 662 nM
IC50 [2, 7]: 33 nM
IC50 [3]: 13 nM
DC50 (ERα in MCF7 cells): 0.2 nM
% Degradation at 3 μM (ERα in MCF7 cells): 88%
IC50 [4]: 1 nM
IC50 [5]: 0.6 nM
IC50 [6, 7]: 543 nM
